This note sets out measurements from PubChem BioAssay AID256 (DTP/NCI, 2004).

Values joined by “and” are separate entries in the source; they are usually repeats but may differ in a detail not shown here. Equal values may be shown once. Inconclusive results and toxic doses are left out.

In this assay the test system is CD2F1 mice, L1210 leukemia ip, survival T/C. The assay is described as follows: NCI In Vivo Anticancer Drug Screen. Data for tumor model L1210 Leukemia (intraperitoneal) in CD2F1 (CDF1) mice. As to conditions: higher = longer survival. A digest of the protocol:
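Read-out first: treated-group measurement over vehicle-control measurement, expressed as a ratio. Animals bore a transplanted tumor line and were dosed with compound or vehicle.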

Turning to `O=P1(Oc2ccccc2)NCC(Br)CO1` (centres undefined), the T/C runs as follows: (endpoint: mean survival time, dose: 18.8 mg/kg/injection, schedule: Q01DX001 (ip), vehicle: other) 98 % of control; (endpoint: mean survival time, dose: 31.25 mg/kg/injection, schedule: Q01DX001 (ip), vehicle: other) 104 % of control; (endpoint: mean survival time, dose: 37.5 mg/kg/injection, schedule: Q01DX001 (ip), vehicle: other) 98 % of control; (endpoint: mean survival time, dose: 62.5 mg/kg/injection, schedule: Q01DX001 (ip), vehicle: other) 107 % of control; (endpoint: mean survival time, dose: 75.0 mg/kg/injection, schedule: Q01DX001 (ip), vehicle: other) 105 % of control; (endpoint: mean survival time, dose: 125.0 mg/kg/injection, schedule: Q01DX001 (ip), vehicle: other) 94 % of control. Moreover, the T/C is 113 % of control (endpoint: mean survival time, dose: 150.0 mg/kg/injection, schedule: Q01DX001 (ip), vehicle: other); 100 % of control (endpoint: mean survival time, dose: 250.0 mg/kg/injection, schedule: Q01DX001 (ip), vehicle: other); 107 % of control (endpoint: mean survival time, dose: 300.0 mg/kg/injection, schedule: Q01DX001 (ip), vehicle: other); 100 % of control (endpoint: mean survival time, dose: 500.0 mg/kg/injection, schedule: Q01DX001 (ip), vehicle: other).
`CC1CCc2c(ccc3ccccc23)C1=O` (centres undefined): the T/C runs as follows: (endpoint: mean survival time, dose: 100.0 mg/kg/injection, schedule: Q01DX009 (ip), vehicle: saline with Tween-80) 97 % of control; (endpoint: mean survival time, dose: 100.0 mg/kg/injection, schedule: Q04DX003 (ip), vehicle: saline with Tween-80) 97 % of control; (endpoint: mean survival time, dose: 200.0 mg/kg/injection, schedule: Q01DX009 (ip), vehicle: saline with Tween-80) 95 % of control; (endpoint: mean survival time, dose: 200.0 mg/kg/injection, schedule: Q04DX003 (ip), vehicle: saline with Tween-80) 97 % of control; (endpoint: mean survival time, dose: 400.0 mg/kg/injection, schedule: Q01DX009 (ip), vehicle: saline with Tween-80) 97 % of control; (endpoint: mean survival time, dose: 400.0 mg/kg/injection, schedule: Q04DX003 (ip), vehicle: saline with Tween-80) 94 % of control.
With `COc1cc(NCc2ccc3nc(N)nc(N)c3c2C)cc(OC)c1OC`, the T/C (endpoint: mean survival time, dose: 0.62 mg/kg/injection, schedule: Q01DX009 (ip), vehicle: sodium bicarbonate) was 102 % of control; the T/C (endpoint: mean survival time, dose: 1.25 mg/kg/injection, schedule: Q01DX009 (ip), vehicle: sodium bicarbonate) was 102 % of control and 106 % of control; the T/C (endpoint: mean survival time, dose: 1.87 mg/kg/injection, schedule: Q04DX003 (ip), vehicle: sodium bicarbonate) was 106 % of control; the T/C (endpoint: mean survival time, dose: 2.5 mg/kg/injection, schedule: Q01DX009 (ip), vehicle: sodium bicarbonate) is 110 % of control and 112 % of control; the T/C (endpoint: mean survival time, dose: 3.11 mg/kg/injection, schedule: Q01DX009 (ip), vehicle: other) was 118 % of control; the T/C (endpoint: mean survival time, dose: 3.75 mg/kg/injection, schedule: Q04DX003 (ip), vehicle: sodium bicarbonate) is 96 % of control. The T/C is 121 % of control and 110 % of control (endpoint: mean survival time, dose: 5.0 mg/kg/injection, schedule: Q01DX009 (ip), vehicle: sodium bicarbonate); 121 % of control (endpoint: mean survival time, dose: 5.18 mg/kg/injection, schedule: Q01DX009 (ip), vehicle: other); 122 % of control (endpoint: mean survival time, dose: 5.27 mg/kg/injection, schedule: Q01DX009 (ip), vehicle: Klucel (hydroxypropylcellulose) (HPC)); 117 % of control (endpoint: mean survival time, dose: 7.05 mg/kg/injection, schedule: Q01DX009 (ip), vehicle: water); 110 % of control (endpoint: mean survival time, dose: 7.5 mg/kg/injection, schedule: Q04DX003 (ip), vehicle: sodium bicarbonate); 123 % of control (endpoint: mean survival time, dose: 10.5 mg/kg/injection, schedule: Q01DX009 (ip), vehicle: water). Also, the T/C was 112 % of control (endpoint: mean survival time, dose: 15.0 mg/kg/injection, schedule: Q04DX003 (ip), vehicle: sodium bicarbonate); 174 % of control (endpoint: mean survival time, dose: 17.8 mg/kg/injection, schedule: Q01DX009 (ip), vehicle: Klucel (hydroxypropylcellulose) (HPC)); 156 % of control and 160 % of control (endpoint: mean survival time, dose: 20.0 mg/kg/injection, schedule: Q01DX009 (ip), vehicle: sodium bicarbonate); 152 % of control (endpoint: mean survival time, dose: 24.0 mg/kg/injection, schedule: Q01DX009 (ip), vehicle: other); 191 % of control (endpoint: mean survival time, dose: 26.7 mg/kg/injection, schedule: Q01DX009 (ip), vehicle: Klucel (hydroxypropylcellulose) (HPC)); 114 % of control (endpoint: mean survival time, dose: 30.0 mg/kg/injection, schedule: Q04DX003 (ip), vehicle: sodium bicarbonate). Besides, the T/C is, setting by setting: (endpoint: mean survival time, dose: 40.0 mg/kg/injection, schedule: Q01DX009 (ip), vehicle: Klucel (hydroxypropylcellulose) (HPC)) 216 % of control; (endpoint: mean survival time, dose: 40.0 mg/kg/injection, schedule: Q01DX009 (ip), vehicle: other) 167 % of control; (endpoint: mean survival time, dose: 40.0 mg/kg/injection, schedule: Q01DX009 (ip), vehicle: sodium bicarbonate) 110 % of control; (endpoint: mean survival time, dose: 60.0 mg/kg/injection, schedule: Q01DX009 (ip), vehicle: Klucel (hydroxypropylcellulose) (HPC)) 122 % of control; (endpoint: mean survival time, dose: 80.0 mg/kg/injection, schedule: Q01DX009 (ip), vehicle: water) 151 % of control; (endpoint: mean survival time, dose: 90.0 mg/kg/injection, schedule: Q01DX009 (ip), vehicle: Klucel (hydroxypropylcellulose) (HPC)) 116 % of control. Further, the T/C reads like this: (endpoint: median survival time, dose: 2.5 mg/kg/injection, schedule: Q01DX009 (ip), vehicle: sodium bicarbonate) 109 % of control; (endpoint: median survival time, dose: 5.0 mg/kg/injection, schedule: Q01DX009 (ip), vehicle: Klucel (hydroxypropylcellulose) (HPC)) 119 % of control; (endpoint: median survival time, dose: 5.0 mg/kg/injection, schedule: Q01DX009 (ip), vehicle: sodium bicarbonate) 117 % of control and 124 % of control; (endpoint: median survival time, dose: 6.25 mg/kg/injection, schedule: Q01DX009 (ip), vehicle: water) 124 % of control; (endpoint: median survival time, dose: 7.5 mg/kg/injection, schedule: Q01DX005 (ip), vehicle: Klucel (hydroxypropylcellulose) (HPC)) 150 % of control; (endpoint: median survival time, dose: 10.0 mg/kg/injection, schedule: Q01DX009 (ip), vehicle: Klucel (hydroxypropylcellulose) (HPC)) 151 % of control. Also, the T/C was 167 % of control (endpoint: median survival time, dose: 15.0 mg/kg/injection, schedule: Q01DX005 (ip), vehicle: Klucel (hydroxypropylcellulose) (HPC)); 153 % of control (endpoint: median survival time, dose: 18.0 mg/kg/injection, schedule: Q01DX009 (ip), vehicle: distilled water + Tween-80); 172 % of control (endpoint: median survival time, dose: 20.0 mg/kg/injection, schedule: Q01DX009 (ip), vehicle: Klucel (hydroxypropylcellulose) (HPC)); 152 % of control and 157 % of control (endpoint: median survival time, dose: 20.0 mg/kg/injection, schedule: Q01DX009 (ip), vehicle: sodium bicarbonate); 157 % of control (endpoint: median survival time, dose: 25.0 mg/kg/injection, schedule: Q01DX009 (ip), vehicle: water); 165 % of control (endpoint: median survival time, dose: 27.0 mg/kg/injection, schedule: Q01DX009 (ip), vehicle: distilled water + Tween-80). Besides, the T/C (endpoint: median survival time, dose: 30.0 mg/kg/injection, schedule: Q01DX005 (ip), vehicle: Klucel (hydroxypropylcellulose) (HPC)) was 166 % of control and 175 % of control; the T/C (endpoint: median survival time, dose: 40.0 mg/kg/injection, schedule: Q01DX009 (ip), vehicle: distilled water + Tween-80) is 158 % of control and 168 % of control; the T/C (endpoint: median survival time, dose: 40.0 mg/kg/injection, schedule: Q01DX009 (ip), vehicle: sodium bicarbonate) was 168 % of control and 181 % of control; the T/C (endpoint: median survival time, dose: 44.0 mg/kg/injection, schedule: Q01DX009 (ip), vehicle: water) is 154 % of control; the T/C (endpoint: median survival time, dose: 50.0 mg/kg/injection, schedule: Q01DX009 (ip), vehicle: water) is 157 % of control and 165 % of control; the T/C (endpoint: median survival time, dose: 60.0 mg/kg/injection, schedule: Q01DX005 (ip), vehicle: Klucel (hydroxypropylcellulose) (HPC)) was 184 % of control and 185 % of control. For the same molecule, the T/C is 160 % of control and 182 % of control (endpoint: median survival time, dose: 60.0 mg/kg/injection, schedule: Q01DX009 (ip), vehicle: distilled water + Tween-80); 112 % of control (endpoint: median survival time, dose: 80.0 mg/kg/injection, schedule: Q01DX009 (ip), vehicle: Klucel (hydroxypropylcellulose) (HPC)); 118 % of control (endpoint: median survival time, dose: 90.0 mg/kg/injection, schedule: Q01DX009 (ip), vehicle: distilled water + Tween-80); 173 % of control and 184 % of control (endpoint: median survival time, dose: 100.0 mg/kg/injection, schedule: Q01DX009 (ip), vehicle: water); 236 % of control (endpoint: median survival time, dose: 120.0 mg/kg/injection, schedule: Q01DX005 (ip), vehicle: Klucel (hydroxypropylcellulose) (HPC)).
As to `CC1CCOC(C)(C)O1` (centres undefined), the T/C was 100 % of control (endpoint: mean survival time, dose: 100.0 mg/kg/injection, schedule: Q04DX002 (ip), vehicle: saline); 86 % of control (endpoint: mean survival time, dose: 200.0 mg/kg/injection, schedule: Q04DX002 (ip), vehicle: saline); 104 % of control (endpoint: mean survival time, dose: 400.0 mg/kg/injection, schedule: Q04DX002 (ip), vehicle: saline).
For the molecule `N#CC(C#N)=C/C=C/c1cccc([N+](=O)[O-])c1`, the T/C is, setting by setting: (endpoint: mean survival time, dose: 3.12 mg/kg/injection, schedule: Q01DX009 (ip), vehicle: Klucel (hydroxypropylcellulose) (HPC)) 101 % of control; (endpoint: mean survival time, dose: 6.25 mg/kg/injection, schedule: Q01DX009 (ip), vehicle: Klucel (hydroxypropylcellulose) (HPC)) 109 % of control; (endpoint: mean survival time, dose: 12.5 mg/kg/injection, schedule: Q01DX009 (ip), vehicle: Klucel (hydroxypropylcellulose) (HPC)) 104 % of control.
